Values of other authors in US20020137785A1, “Inflammatory mechanism modulator composition and methods with anti-asthmatic properties” (priority 2001, published 2002).

Key:
[1] = intravenous; coronary artery disease; tachycardia induced in the electrophysiology laboratory
[2] = people with septic shock; NAC alone; reduced from 21 days

| Structure (SMILES) | aborting monomorphic ventricular tachycardia [1] | ventilator time (mechanical breathing) [2] |
| --- | --- | --- |
| O=S(=O)([O-])[O-].[Mg+2] [magnesium sulfate] | ineffective | – |
| CC(=O)N[C@@H](CS)C(=O)O [NAC, N-acetyl-cysteine] | – | about 7 days |
